The assay concerns the target human MRGPRD (Homo sapiens, UniProt Q8TDS7). The assay can be described thus: MRGPRD antagonist activity, IP-One HTRF assay in CHO cells stably expressing human MRGPRD (versus 100 μM β-Alanine agonist). Type of assay: cell-based. The method in brief: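 CHO cells stably expressing human MRGPRD, plated overnight at 37 °C, were treated with antagonist plus agonist in Tris-HCl/NaCl/LiCl buffer pH 8, incubated 1 h at 37 °C then 1 h at room temperature. IP-1 accumulation read by HTRF; IC50 and percent antagonism of maximum efficacy averaged, SEM reported.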

A value given as a limit tells only on which side of the number the result lay.

Chain of human MRGPRD (Q8TDS7 whole entry): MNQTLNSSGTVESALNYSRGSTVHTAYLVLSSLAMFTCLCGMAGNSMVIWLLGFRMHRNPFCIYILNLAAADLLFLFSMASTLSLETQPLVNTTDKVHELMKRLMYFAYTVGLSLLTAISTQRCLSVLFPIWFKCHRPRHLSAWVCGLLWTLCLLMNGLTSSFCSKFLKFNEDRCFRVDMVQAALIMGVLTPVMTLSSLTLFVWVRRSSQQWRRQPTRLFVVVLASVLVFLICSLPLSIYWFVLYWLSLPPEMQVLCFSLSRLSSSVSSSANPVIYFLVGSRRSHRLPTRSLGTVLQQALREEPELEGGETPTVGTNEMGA

With `O=C(Nc1ccncc1)c1nnn(-c2cccc(-c3cccc(C(F)(F)F)c3)c2)c1C1CC1` [Compound 7-294], the concentration for half-maximal inhibition (IC50) (as a rule, the point on the concentration scale where inhibition reaches its midpoint) lay in the range of 1000 to 3000 nM.
In turn, `O=C(Nc1ccncc1)c1nnn(-c2cccc(-c3ccn[nH]3)c2)c1C1CC1` [Compound 7-295] registered an IC50 of 1000 to 3000 nM.
Under `O=C(Nc1ccncc1)c1nnn(-c2cccc(-c3ccc[nH]3)c2)c1C1CC1` [Compound 7-296] stands 1000 to 3000 nM.
Molecule `CC(=O)c1ccc(-c2cccc(-n3nnc(C(=O)NCc4ccc(C)nc4)c3C3CC3)c2)c(F)c1` [Compound 7-297] registered an IC50 of 1000 to 3000 nM.
Consider `O=C(Nc1ccncc1)c1nnn(-c2cccc(-c3ccccc3F)c2)c1C1CC1` [Compound 7-298], for which the IC50 was 1000 to 3000 nM.
For the molecule `O=C(Nc1ccncc1)c1nnn(-c2cccc(-c3cccc(O)c3)c2)c1C1CC1` [Compound 7-299], the IC50 was 1000 to 3000 nM.
Molecule `Cc1nn(C)c(C)c1-c1ccc(-n2nnc(C(=O)Nc3ccncc3)c2C2CC2)c(C(F)(F)F)c1` [Compound 7-300] showed an IC50 of 1000 to 3000 nM.
With `COCn1cc(-c2cccc(-n3nnc(C(=O)Nc4ccncc4)c3C3CC3)c2)cn1` [Compound 7-301], the IC50 is 1000 to 3000 nM.
Turning to `O=C(Nc1ccncc1)c1nnn(-c2cccc(-c3ccccc3Cl)c2)c1C1CC1` [Compound 7-302], the concentration for half-maximal inhibition (IC50) is 1000 to 3000 nM.
In turn, `COc1ccc(-c2cccc(-n3nnc(C(=O)Nc4ccncc4)c3C3CC3)c2)cc1F` [Compound 7-303] registered an IC50 of 1000 to 3000 nM.
Regarding `CCc1ccc(-n2nnc(C(=O)Nc3ccncc3)c2C2CC2)cc1-c1cnn(C(C)C)c1` [Compound 7-304], the IC50 is 1000 to 3000 nM.
As for `Cc1c(-c2cccc(-n3nnc(C(=O)Nc4ccncc4)c3C3CC3)c2)cnn1C` [Compound 7-305], the IC50 lay within 1000 to 3000 nM.
`CCCn1cc(-c2cccc(-n3nnc(C(=O)Nc4ccncc4)c3C3CC3)c2)cn1` [Compound 7-306] displayed an IC50 of 1000 to 3000 nM.
As for `O=C(Nc1ccncc1)c1nnn(-c2cccc(-c3ccc(Cl)cc3)c2)c1C1CC1` [Compound 7-307], the IC50 is 1000 to 3000 nM.
On to `O=C(Nc1ccncc1)c1nnn(-c2cccc(-c3cccc(F)c3)c2)c1C1CC1` [Compound 7-308], for which the IC50 fell in the range of 1000 to 3000 nM.
On to `CCn1cc(-c2cccc(-n3nnc(C(=O)Nc4ccncc4)c3C3CC3)c2)cn1` [Compound 7-309], for which the IC50 was in the range of 1000 to 3000 nM.
To `O=C(Nc1ccncc1)c1nnn(-c2cccc(-c3cn[nH]c3)c2)c1C1CC1` [Compound 7-310] belongs 1000 to 3000 nM.
In turn, `O=C(Nc1ccncc1)c1nnn(-c2cccc(-c3ccc(F)cc3)c2)c1C1CC1` [Compound 7-311] came in with an IC50 of 1000 to 3000 nM.
`O=C(Nc1ccncc1)c1nnn(-c2cccc(-c3ccc(-c4ccccc4)cc3)c2)c1C1CC1` [Compound 7-312] displayed an IC50 of 1000 to 3000 nM.
Under `COc1ccc(-c2cccc(-n3nnc(C(=O)Nc4ccncc4)c3C3CC3)c2)cc1OC` [Compound 7-313] stands 1000 to 3000 nM; under `O=C(Nc1ccncc1)c1nnn(-c2cccc(-c3cnn(C4CC4)c3)c2)c1C1CC1` [Compound 7-314], 1000 to 3000 nM; under `Cc1cc(-n2nnc(C(=O)Nc3ccncc3)c2C2CC2)ccc1-c1c(C)nn(C)c1C` [Compound 7-315], 1000 to 3000 nM.
The molecule `Cc1nn(C)cc1-c1cccc(-n2nnc(C(=O)Nc3ccncc3)c2C2CC2)c1` [Compound 7-316] returned a half-inhibitory concentration (IC50) of 1000 to 3000 nM.
Regarding `CCc1ccc(-n2nnc(C(=O)Nc3ccncc3)c2C2CC2)cc1-c1cccc(C(C)=O)c1` [Compound 7-317], the IC50 was in the range of 1000 to 3000 nM.
`Cc1ccc(-c2cccc(-n3nnc(C(=O)Nc4ccncc4)c3C3CC3)c2)cc1` [Compound 7-318]: the IC50 lay in the range of 1000 to 3000 nM.
As for `Cc1cc(-n2nnc(C(=O)Nc3ccncc3)c2C2CC2)ccc1-c1ccc(C#N)cc1` [Compound 7-319], the IC50 lay in the range of 1000 to 3000 nM.
The molecule `COc1ccccc1-c1cccc(-n2nnc(C(=O)Nc3ccncc3)c2C2CC2)c1` [Compound 7-320] displayed an IC50 of 1000 to 3000 nM.
Under `Cc1cccc(-c2cccc(-n3nnc(C(=O)Nc4ccncc4)c3C3CC3)c2)c1` [Compound 7-321] stands 1000 to 3000 nM; under `Cc1ccccc1-c1cccc(-n2nnc(C(=O)Nc3ccncc3)c2C2CC2)c1` [Compound 7-322], 1000 to 3000 nM; under `CCc1cccc(-c2cccc(-n3nnc(C(=O)Nc4ccncc4)c3C3CC3)c2)c1` [Compound 7-323], 1000 to 3000 nM.
To `O=C(Nc1ccncc1)c1nnn(-c2cccc(-c3cccc(Cl)c3)c2)c1C1CC1` [Compound 7-324] belongs 1000 to 3000 nM.
Under `Cc1nn(C)c(C)c1-c1cccc(-n2nnc(C(=O)Nc3ccncc3)c2C2CC2)c1` [Compound 7-325] stands 1000 to 3000 nM; under `Cn1cc(-c2cccc(-n3nnc(C(=O)Nc4ccncc4)c3C3CC3)c2)cn1` [Compound 7-326], 1000 to 3000 nM.
The molecule `O=C(Nc1ccncc1)c1nnn(-c2ccc(-c3ccccc3-c3ccccc3)cc2)c1C1CC1` [Compound 7-327] had an IC50 of 1000 to 3000 nM.
To `O=C(Nc1ccncc1)c1nnn(-c2cccc(-c3cccc(-c4ccccc4)c3)c2)c1C1CC1` [Compound 7-328] belongs greater than 3000 nM; to `O=C(Nc1ccncc1)c1nnn(-c2cccc(-c3cnn(C(F)F)c3)c2)c1C1CC1` [Compound 7-329], greater than 3000 nM.
In the case of `N#CCc1ccc(-c2cccc(-n3nnc(C(=O)NC4(c5cccnc5)CC4)c3C3CC3)c2)c(F)c1` [Compound 7-330], the IC50 is greater than 3000 nM.
`Cc1nn(C)c(C)c1-c1ccc(-n2nnc(C(=O)Nc3ccncc3)c2C2CC2)cc1C(F)(F)F` [Compound 7-331] showed an IC50 greater than 3000 nM.
`Cc1ccc(CNC(=O)c2nnn(-c3cccc(-c4ccn(C)n4)c3)c2C2CC2)cn1` [Compound 7-332]: the IC50 is greater than 3000 nM.
`Cc1ccc(CNC(=O)c2nnn(-c3cccc(-c4cnn(C5CC5)c4)c3)c2C2CC2)cn1` [Compound 7-333]: the IC50 was greater than 3000 nM.
As for `N#Cc1ccccc1-c1cccc(-n2nnc(C(=O)Nc3ccncc3)c2C2CC2)c1` [Compound 7-334], the IC50 was greater than 3000 nM.
To `Cc1nn(C)c(C)c1-c1ccc(-n2nnc(C(=O)Nc3ccncc3)c2C2CC2)cc1OC(F)(F)F` [Compound 7-335] belongs greater than 3000 nM; to `Cc1cc(NC(=O)c2nnn(-c3ccc(-c4c(C)nn5ccccc45)cc3)c2C2CC2)ccn1` [Compound 8-1], less than 100 nM; to `Cc1cc(NC(=O)c2nnn(-c3ccc(-c4c(C)nn(C5CCC5)c4C)cc3)c2C2CC2)ccn1` [Compound 8-2, 1-(4-(1-cyclobutyl-3,5-dimethyl-1H-pyrazol-4-yl)phenyl)-5-cyclopropyl-N-(2-methylpyridin-4-yl)-1H-1,2,3-triazole-4-carboxamide], less than 100 nM.
The molecule `Cc1ccc(CNC(=O)c2nnn(-c3ccc(-c4c(C)nn(C)c4F)cc3)c2C2CC2)cn1` [Compound 8-3] showed an IC50 of 100 to 500 nM.
Turning to `Cc1ccc(CNC(=O)c2nnn(-c3ccc(-c4cnn5c4CCC5)cc3)c2C2CC2)cn1` [Compound 8-4], the IC50 lay within 1000 to 3000 nM.
Take `CCn1nc(C)c(-c2ccc(-n3nnc(C(=O)Nc4ccnc(C)c4)c3C3CC3)cc2)c1C` [Compound 9-1, 5-cyclopropyl-1-(4-(1-ethyl-3,5-dimethyl-1H-pyrazol-4-yl)phenyl)-N-(2-methylpyridin-4-yl)-1H-1,2,3-triazole-4-carboxamide]: the IC50 is less than 100 nM.
`CCc1cc(NC(=O)c2nnn(-c3ccc(-c4c(C)nn(C)c4C)cc3)c2C2CC2)ccn1` [Compound 9-2] had an IC50 of less than 100 nM.
Molecule `CCc1cc(NC(=O)c2nnn(-c3ccc(-c4c(C)nn(-c5ccccc5)c4C)cc3)c2C2CC2)ccn1` [Compound 9-3] showed an IC50 of less than 100 nM.
Under `Cc1ncccc1CNC(=O)c1nnn(-c2ccc(-c3c(C)nn(-c4ccccc4)c3C)cc2)c1C1CC1` [Compound 9-4] stands less than 100 nM; under `CCn1nc(C)c(-c2ccc(-n3nnc(C(=O)NCc4cccnc4C)c3C3CC3)cc2)c1C` [Compound 9-5], less than 100 nM; under `Cc1ccc(C2(NC(=O)c3nnn(-c4ccc(-c5c(C)nn(-c6ccccc6)c5C)cc4)c3C3CC3)CC2)cn1` [Compound 9-6], less than 100 nM.
Turning to `Cc1ccc(C2(NC(=O)c3nnn(-c4ccc(-c5ccc(C#N)c(F)c5)cc4)c3C3CC3)CC2)cn1` [Compound 9-7], the IC50 is 100 to 500 nM.
Molecule `Cc1nn(-c2ccccc2)c(C)c1-c1ccc(-n2nnc(C(=O)NC3(c4cncc(Cl)c4)CC3)c2C2CC2)cc1` [Compound 9-8] had an IC50 of 100 to 500 nM.
`Cc1nn(C)c(C)c1-c1ccc(-n2nnc(C(=O)NCc3ccc(C(C)C)nc3)c2C2CC2)cc1` [Compound 9-9] returned an IC50 of 100 to 500 nM.
In turn, `CCn1nc(C)c(-c2ccc(-n3nnc(C(=O)NCc4ccc(C)nc4)c3C3CC3)cc2)c1C` [Compound 9-10] yielded an IC50 of 100 to 500 nM.
Under `CCn1cc(CNC(=O)c2nnn(-c3ccc(-c4c(C)nn(CC)c4C)cc3)c2C2CC2)cn1` [Compound 9-11] stands 100 to 500 nM; under `Cc1cncc(CNC(=O)c2nnn(-c3ccc(-c4c(C)nn(-c5ccccc5)c4C)cc3)c2C2CC2)c1` [Compound 9-12], 100 to 500 nM.
With `CCc1ccc(C2(NC(=O)c3nnn(-c4ccc(-c5ccc(C#N)c(F)c5)cc4)c3C3CC3)CC2)cn1` [Compound 9-13], the IC50 lay in the range of 100 to 500 nM.
As for `Cc1nn(-c2ccccc2)c(C)c1-c1ccc(-n2nnc(C(=O)NCc3cccnc3)c2C2CC2)cc1` [Compound 9-14], the IC50 lay within 100 to 500 nM.
Molecule `Cc1nn(-c2ccccc2)c(C)c1-c1ccc(-n2nnc(C(=O)NCc3ccc(C(C)C)nc3)c2C2CC2)cc1` [Compound 9-15] registered an IC50 of 100 to 500 nM.
Molecule `CCc1cc(NC(=O)c2nnn(-c3ccc(-c4c(C)nn(CC)c4C)cc3)c2C2CC2)ccn1` [Compound 9-16] registered an IC50 of 100 to 500 nM.
`CCc1ccc(C2(NC(=O)c3nnn(-c4ccc(-c5ccc(C#N)cc5C)cc4)c3C3CC3)CC2)cn1` [Compound 9-17]: the IC50 was 100 to 500 nM.
The molecule `CCn1nc(C)c(-c2ccc(-n3nnc(C(=O)NCc4cnn(C)c4)c3C3CC3)cc2)c1C` [Compound 9-18] registered an IC50 of 100 to 500 nM.
`CCn1nc(C)c(-c2ccc(-n3nnc(C(=O)NCc4cncc(C)c4)c3C3CC3)cc2)c1C` [Compound 9-19] yielded an IC50 of 100 to 500 nM.

Source of the values: patent US20260001871A1, “TRIAZOLE DERIVATIVES AS MODULATORS OF MAS-RELATED G-PROTEIN RECEPTOR D” (ESCIENT PHARMACEUTICALS, INC., priority 2022, published 2026).
